Assay results published in PMC7999366, “Alkyl-Resorcinol Derivatives as Inhibitors of GDP-Mannose Pyrophosphorylase with Antileishmanial Activities” (Molecules, 2021).
Read-outs that look alike come from different tables or passages of the source.

Key:
[1] = biological target: LiGDP-MP (Leishmania infantum, UniProt A4I048); test: Enzyme inhibition assay on purified recombinant LiGDP-MP (malachite green); type: biochemical
Excerpt: (§1) Recombinant His6 tagged GDP-MP from L. infantum (LiGDP-MP) was produced in E. coli and purified using Ni-nitrilotriacetic acid (Ni-NTA) and size exclusion chromatography Hiload^TM16/60 Superdex^TM 200 column as previously described for LdGDP-MP [12]. Recombinant His-tagged GDP-MP from human (hGDP-MP) was produced in E. coli and purified using a Mono-Q anion exchange column followed by a Hiload^TM 16/60 Superdex^TM 200 column as previously described.
(§2) Enzyme activities of both LiGDP-MP and hGDP-MP were measured at 37 °C for 20 min in 384 well plates in a 20-µL reaction containing 50 mM Tris-HCl pH 7.5, 5 mM MgCl2, 100 µM Mannose-1-phosphate, 100 µM GTP, 1 mM DTT, 0.1 U/mL inorganic pyrophosphatase (Sigma-Aldrich, Saint-Quentin-Fallavier, France) and 2 ng/µL of recombinant GDP-MP [12, 29]. The reaction was initiated by the addition of GDP-MP, and was stopped after adding 20 µL of revelation buffer containing malachite green (0.03% w/v), ammonium molybdate (0.2% w/v) and Triton X-100 (0.05% v/v) in HCl (0.7 M) for 5 min at 37 °C. The quantity of inorganic phosphate generated, representing GDP-MP activity, was determined by measuring OD650nm with a spectrometer plate reader Polar Omega (BMG LabTech, Champigny-sur-Marne, France).
(§3) To evaluate compounds on purified GDP-MPs, enzyme activities were measured as described above in the presence of 100 µg/mL of natural products originating from a chemical library from ICSN (Institut de Chimie des Substances Naturelles, Gif-sur-Yvette). The inhibitors were added in the reaction mix, before the addition of GDP-MP. The percentage of inhibition was then calculated in reference to untreated enzyme. The statistical parameter (Z-factor) was calculated to validate the quality of the HTS assays as described previously. As a control, compounds were evaluated in parallel in the same conditions on inorganic pyrophosphatase alone in order to discard false-positives. […] The IC50 were determined by nonlinear regression using GraphPad Prism 7.0 and further converted in µM in order to normalize units in Table 1. Enzyme inhibition assays were performed in triplicate in three independent experiments.

[2] = test system: L. infantum axenic amastigotes; test: In vitro antileishmanial evaluation on axenic amastigotes (resazurin); type: cell-based, Leishmania infantum; details: 72 h incubation, read-out: L. infantum Axenic Amastigotes IC50 (µM) ± SD
Protocol: Promastigotes of Leishmania infantum (MHOM/FR/2008/LEM5700) were cultured in the dark at 26 °C with 5% CO2 in M199 complete medium containing M199 medium supplemented with adenosine (100 µM), hemin (0.5 mg/L), Hepes (40 mM) pH 7.4, and heat inactivated foetal bovine serum (10%; HIFBS). Cultures of axenic amastigotes of L. infantum were adapted from. Briefly, axenic amastigotes of L. infantum were obtained from late log promastigotes diluted at 1 × 10^6/mL in M199 complete medium acidified at pH 5.5 and cultured at 37 °C with 5% CO2.
The evaluations of activity on axenic amastigotes were adapted from the protocols previously described. Briefly, two-fold serial dilutions of the compounds, from 100 µM to 0.049 µM, were performed in 100 µL of complete medium (see above) in 96-well microplates. Axenic amastigotes were then added to each well at a density of 10^6/mL in a 200 µL final volume. After 72 h of incubation at 37 °C with 5% CO2, 20 µL of resazurin (450 µM) was added to each well and further incubated in the dark for 24 h at 37 °C with 5% CO2. Cell viability was then monitored as described above. The activity of the compounds was expressed as IC50, which was determined by nonlinear regression using GraphPad Prism 7.0.

[3] = test system: L. infantum intramacrophage amastigotes; test: In vitro antileishmanial evaluation on intramacrophage amastigotes (Giemsa counting in RAW 264.7); type: cell-based, Leishmania infantum; details: for IC50: Leishmania infantum, RAW264.7, RAW 264.7 macrophages, 48 h treatment, read-out: L. infantum Intramacrophage Amastigotes IC50 (µM) ± SD; for Selectivity Index: CC50/IC50 on intramacrophage amastigotes
Protocol: Concerning the evaluation on intramacrophage amastigotes, the determination of the cytotoxicity as presented above was necessary to use the highest drug concentrations to be studied on the intramacrophage amastigote model. RAW 264.7 macrophages were plated in 16-well Lab-Tek chamber slides (Thermo-FisherVillebon-sur-Yvette, France) at a density of 2 × 10^4 cells per well and incubated for 24 h at 37 °C with 5% CO2. […] After 24 h of infection at 37 °C with 5% CO2, extracellular parasites were removed, and DMEM complete medium (100 µL) containing two-fold serial dilutions of the compounds, from 100 µM to 0.049 µM, was added to each well. A positive control treated with 1% DMSO was added to each Lab-tek chamber-slide. After 48 h of treatment, the medium was removed and cells were fixed in methanol for 1 min, stained in 10% Giemsa (Merck) for 5 min, and further rinsed in water before observation in phase contrast at the microscope (Olympus CX31; Olympus, Rungis, France). The number of amastigotes was counted by two independent experimenters for a total of 300 macrophages per well and the ratio of amastigotes per macrophage was determined for each condition. This ratio was further compared with the one of the positive control, considered as 100%, to determine a percentage of inhibition (% I), as follows: % I = 100 − ((ratio of amastigotes per macrophage in treated cells/ratio of amastigotes per macrophages in untreated cells) × 100). The activity of the compounds was expressed as IC50, which was determined by nonlinear regression using GraphPad Prism 7.0. […] In vitro antileishmanial evaluations were performed in triplicate in three independent experiments.

[4] = biological target: T1, hGDP-MP (Homo sapiens, UniProt Q9Y5P6); test: Enzyme inhibition assay on purified recombinant hGDP-MP (malachite green); type: biochemical; details: 37 °C, 20 min, read-out: hGDP-MP IC50 (µM) ± SD
T1 construct: His; made in house; host or cells: E. coli
T1 sequence (Q9Y5P6 whole entry): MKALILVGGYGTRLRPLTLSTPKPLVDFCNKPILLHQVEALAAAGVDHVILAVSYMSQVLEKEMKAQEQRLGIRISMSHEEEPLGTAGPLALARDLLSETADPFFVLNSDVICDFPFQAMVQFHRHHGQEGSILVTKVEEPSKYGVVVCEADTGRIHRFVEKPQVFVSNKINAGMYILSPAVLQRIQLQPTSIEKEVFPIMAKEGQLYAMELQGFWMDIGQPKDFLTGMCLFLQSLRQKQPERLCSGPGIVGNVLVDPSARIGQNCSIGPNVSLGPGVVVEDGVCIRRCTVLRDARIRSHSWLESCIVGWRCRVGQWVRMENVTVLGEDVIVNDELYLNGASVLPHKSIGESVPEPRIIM
Excerpt: as §1, §2, §3

[5] = In vitro cytotoxicity on RAW 264.7 macrophages (resazurin); type: cell-based; details: mouse, 48 h incubation, read-out: Cytotoxicity on RAW 264.7 CC50 (µM) ± SD
Protocol: The RAW 264.7 macrophages (ATCC) were cultured at 37 °C with 5% CO2 in DMEM complete medium containing Dulbecco′s Modified Eagle′s Medium (DMEM, Invitrogen, Thermo-Fisher, Villebon-sur-Yvette, France) supplemented with penicillin-streptomycin (100 U/mL; Invitrogen), and heat-inactivated fetal bovine serum (10%; HIFBS).
Cytotoxicity was evaluated on RAW 264.7 macrophages. Cells were plated in 96-well microplates at a density of 2 × 10^4 cells per well. After an incubation of 24 h at 37 °C with 5% CO2, the medium was removed in each well, and 100 µL of DMEM complete medium containing two-fold serial dilutions of the compounds, from 100 µM to 0.049 µM, was added to each well. After 48 h of incubation at 37 °C with 5% CO2, 10 µL of resazurin (450 µM) was added to each well, and further incubated in the dark for 4 h at 37 °C with 5% CO2. In living cells, resazurin is reduced in resorufin, and this conversion is monitored by measuring OD570nm (resorufin) and OD600nm (resazurin; multimode microplate reader Spark®, Tecan, Lyon, France). […] In vitro cytotoxicity assays were performed in triplicate in three independent experiments.

[6] = purified recombinant enzyme, 37 °C, 20 min, read-out: LiGDP-MP IC50 (µM) ± SD

Chain of LiGDP-MP (A4I048 entry or part of it): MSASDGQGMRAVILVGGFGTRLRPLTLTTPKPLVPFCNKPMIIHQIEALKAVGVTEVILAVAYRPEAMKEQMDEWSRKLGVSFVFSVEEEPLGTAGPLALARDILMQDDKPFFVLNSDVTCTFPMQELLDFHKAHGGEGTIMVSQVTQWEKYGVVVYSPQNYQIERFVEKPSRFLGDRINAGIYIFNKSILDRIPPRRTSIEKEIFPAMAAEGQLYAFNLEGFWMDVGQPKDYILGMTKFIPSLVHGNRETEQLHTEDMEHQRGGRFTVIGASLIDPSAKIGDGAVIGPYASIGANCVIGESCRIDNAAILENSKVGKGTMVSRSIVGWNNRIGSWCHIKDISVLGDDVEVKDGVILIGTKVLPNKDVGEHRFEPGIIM

SMILES	IC50 ([2]; Leishmania infantum, 72 h)	IC50 [3]	IC50 [4]	IC50 [2]	IC50 [1, 6]	IC50 [1]	activity on leishmanial GDP-MP (in words) ([1]; purified enzyme)	Selectivity Index [3]	CC50 at 48 h [5]
CCCCCCCCCCCCCCCCOP(=O)([O-])OCC[N+](C)(C)C [Miltefosine, hexadecylphosphocholine, reference compound]	1 ± 0.3 µM	6.7 ± 1.7 µM	–	–	–	> 250 µM	did not show any activity	–	–
CCCC/C=C\CCCCCc1cccc(O)c1C(=O)O [compound 4, Khookerianic acid B]	> 100 µM	> 100 µM	79.9 ± 5.9 µM	–	120 ± 27.5 µM	–	–	<0.8	83.1 ± 7 µM
CCCCCCCCCCCc1cccc(O)c1C(=O)O [compound 5, anagigantic acid]	> 100 µM	> 100 µM	38.3 ± 4.1 µM	–	50.6 ± 4.8 µM	–	–	–	> 100 µM
CCCC/C=C\CCCCCCCc1cccc(O)c1C(=O)O [compound 6, (Z)-2-hydroxy-6-(tridec-8-en-1-yl)benzoic acid]	> 100 µM	42.7 ± 1.3 µM	122 ± 26.1 µM	–	100 ± 16.6 µM	–	–	>2.3	> 100 µM
CCCCCCCCCCCCCc1cccc(O)c1C(=O)O [compound 7, 2-hydroxy-6-tridecylbenzoic acid]	> 100 µM	> 100 µM	29 ± 2.5 µM	–	16.9 ± 5 µM	–	–	–	> 100 µM

Continued, in another order:

IC50 ([2]; Leishmania infantum, 72 h)	IC50 [3]	IC50 [4]	IC50 [2]	IC50 [1, 6]	SMILES	IC50 [1]	activity on leishmanial GDP-MP (in words) ([1]; purified enzyme)	Selectivity Index [3]	CC50 at 48 h [5]
> 50 µM	> 50 µM	1.3 ± 0.2 µM	78.9 ± 3.1 µM	–	COc1cc(O)cc(CCCCCCC/C=C\CCCCCCCc2cc(O)cc(O)c2)c1 [compound 1, (8′Z)-1-hydroxy-3-methoxy-5-[16′-(3′′,5′′-dihydroxy-phenyl)-8′-hexadecen-1′-yl]benzene]	–	–	<0.7	34.4 ± 1.5 µM
–	–	13.7 ± 14.2 µM	–	5.9 ± 3.5 µM	COc1cc(O)cc(CCCCCCCCCCCCCCCCc2cc(O)cc(O)c2)c1 [compound 2, 1-hydroxy-3-methoxy-5-[16′-(3′′,5′′-dihydroxyphenyl)-hexadecanyl]benzene]	–	–	–	–
> 25 µM	> 25 µM	1.9 ± 0.4 µM	49.5 ± 4.2 µM	2.3 µM	COc1cc(O)cc(CCCCCCCCC/C=C\CCCCCCCc2cc(O)cc(O)c2)c1 [compound 3, (10′Z)-1-hydroxy-3-methoxy-5-[18′-(3′′,5′′-dihydroxy-phenyl)-10′-octodecen-1′-yl]benzene]	–	–	<1.2	31.8 ± 1.6 µM
